Values quoted from earlier work as cited in US20060141030A1, “Method and composition for stable and controlled delivery of (-)-hydroxycitric acid” (priority 2003, published 2006).

Assays:
[1] = test system: human hepatoma cell line Hep G2
test subjects = conditions: chronic administration; resting and exercising conditions
experimental animals = conditions: single large oral dose or two divided oral doses totaling one fourth of it; high-sugar diet
middle-aged rats = conditions: 30% fat diet

| Structure (SMILES) | incorporation of [1,5-14C]citrate into fatty acids and cholesterol ([1]; Hep G2, HCA 0.5 mM or higher, 2.5 h and 18 h incubations) | cholesterol biosynthesis, of the control value ([1]; Hep G2, incorporation from 3H2O) [%] | respiratory exchange ratio (test subjects) | reduction in food consumption (experimental animals) [%] | protein and fat as percentage of body weight (middle-aged rats) |
| --- | --- | --- | --- | --- | --- |
| O=C(O)CC(O)(C(=O)O)C(O)C(=O)O (single isomer, unassigned; (-)) [HCA, (−)-Hydroxycitric acid] | strongly inhibited | 27 | significantly lower | ≥ 10 | – |
| O=C([O-])CC(O)(C(=O)[O-])C(O)C(=O)[O-].[K+].[K+].[K+] (centres unmarked) [potassium HCA] | – | – | – | – | increased protein as a percentage of body weight while reducing fat as a percentage of body weight |
